The source of these data is patent US20150313913A1, “POSITIVE ALLOSTERIC MODULATORS OF THE GABA-A RECEPTOR IN THE TREATMENT OF AUTISM” (UNIVERSITY OF WASHINGTON THROUGH ITS CENTER FOR …, priority 2013, published 2015).

Data set [1] has as its system mouse genetic models of human Dravet syndrome and idiopathic autism. Put plainly: Summary: low-dose treatment of mouse models of autism. The settings on record: low doses that do not induce sedative or anxiolytic effects. The class given is in vivo, mice. An excerpt:
The present disclosure describes methods effective in the rescue or amelioration of autism-like behavior, cognitive deficit, and context-dependent spatial memory.
In particular embodiments, these methods comprise the administration of low doses of a benzodiazepine to a human or other mammalian subject in order to rescue autism-like behavior, cognitive deficit, and context-dependent spatial memory. […] At such low doses, the administration of benzodiazepines, such as CLZ, to mammalian subjects will result in improvement of autism-like behavior, cognitive deficit, and context-dependent spatial learning and memory with much lower levels of sedation compared to mammalian subjects who receive typical higher doses of CLZ or other benzodiazepines that are used for treatment of anxiety, insomnia, or seizure.
The present disclosure is also directed to methods of rescuing or ameliorating indicia of Autism Spectrum disorders, autism-like behavior, cognitive deficit, and context-dependent spatial learning and memory in Dravet syndrome or idiopathic autism with α-2,3-specific GABA-A receptor positive allosteric modifiers. Such α-2,3-subunit selective GABA-A receptor positive allosteric modifiers include L838,417.
Therapeutic approaches to treat autistic traits in animal studies or in clinical trials have primarily focused on reducing excitatory neurotransmission in glutamatergic synapses to rebalance E/I ratio in autistic brain (Michalon et al., 2012; Yang et al., 2012). However, autistic-like behaviors in ASD mouse models are only partially reversed by drugs that inhibit excitatory neurotransmission, and these drugs also have unwanted side effects on wild-type mice (Henderson et al., 2012; Michalon et al., 2012; Yang et al., 2012). To overcome these drawbacks, the inventors focused on the opposing side, the GABAergic inhibitory transmission in autistic brain. Their results highlight the potential for therapy of autistic-like behaviors and cognitive deficit in ASD by low-dose treatment with subunit-selective benzodiazepines and other positive allosteric modulators of GABA-A receptors. […] It is possible that the biphasic dose-response relationship of the positive allosteric modulators reflects their actions on receptors containing α2,3 subunits at low doses and on receptors containing α1 subunits at higher doses.

The conditions of data set [2]: cited from earlier work.
For data set [3], the system named is C57BL/6J mice. Put plainly: Open field test. The class given is in vivo. Here is the method:
(§1) Open field test was performed as previously described (Han et al., 2012). 50×50 cm square open field arena with non-transparent white Plexiglas was used in this study. During the 10 min of trial, total distance moved, circling behavior (a complete 360-degree turn of nose angle with respect to the body center) and time in center (20×20 cm imaginary square) were measured by the video-tracking software (EthoVision XT 8.5, Noldus Technology).

For data set [4], the system named is BTBR mice. Put plainly: Open field test. In kind it is in vivo. Here is the method:
as §1

The conditions of data set [5]: cited from earlier work. The source holds these as a separate data set.
Data set [6] deals with GABA-A α4 or α6 subtypes. The settings on record: cited from earlier work.
The target of data set [7] is T1, GABA-A α1 subtype (Homo sapiens, UniProt P14867+P18507).
T1 sequence (P14867 28-456): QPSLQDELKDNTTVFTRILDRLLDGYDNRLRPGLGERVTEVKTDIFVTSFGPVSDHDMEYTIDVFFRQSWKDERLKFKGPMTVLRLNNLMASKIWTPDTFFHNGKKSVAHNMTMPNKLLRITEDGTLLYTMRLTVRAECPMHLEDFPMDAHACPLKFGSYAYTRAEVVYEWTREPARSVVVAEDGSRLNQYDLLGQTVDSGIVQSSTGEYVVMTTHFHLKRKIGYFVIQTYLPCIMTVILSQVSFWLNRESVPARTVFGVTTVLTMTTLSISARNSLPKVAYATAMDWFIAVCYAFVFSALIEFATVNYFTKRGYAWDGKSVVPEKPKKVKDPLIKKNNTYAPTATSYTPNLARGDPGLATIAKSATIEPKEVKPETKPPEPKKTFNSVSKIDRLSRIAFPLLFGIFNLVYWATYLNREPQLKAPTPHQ
T1 sequence (P18507 40-467 limits assumed): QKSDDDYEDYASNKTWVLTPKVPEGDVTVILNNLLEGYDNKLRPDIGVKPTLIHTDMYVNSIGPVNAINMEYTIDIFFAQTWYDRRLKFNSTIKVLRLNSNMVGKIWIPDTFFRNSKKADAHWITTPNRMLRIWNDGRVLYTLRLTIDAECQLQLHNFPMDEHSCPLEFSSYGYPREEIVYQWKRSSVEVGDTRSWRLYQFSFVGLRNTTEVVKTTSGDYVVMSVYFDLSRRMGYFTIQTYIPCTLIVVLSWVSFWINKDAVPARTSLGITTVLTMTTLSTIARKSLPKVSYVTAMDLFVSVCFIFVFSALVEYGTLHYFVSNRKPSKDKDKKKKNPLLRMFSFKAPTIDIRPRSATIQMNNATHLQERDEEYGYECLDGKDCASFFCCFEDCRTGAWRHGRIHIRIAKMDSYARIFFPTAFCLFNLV
T1 sequence (P28472 26-473 partner): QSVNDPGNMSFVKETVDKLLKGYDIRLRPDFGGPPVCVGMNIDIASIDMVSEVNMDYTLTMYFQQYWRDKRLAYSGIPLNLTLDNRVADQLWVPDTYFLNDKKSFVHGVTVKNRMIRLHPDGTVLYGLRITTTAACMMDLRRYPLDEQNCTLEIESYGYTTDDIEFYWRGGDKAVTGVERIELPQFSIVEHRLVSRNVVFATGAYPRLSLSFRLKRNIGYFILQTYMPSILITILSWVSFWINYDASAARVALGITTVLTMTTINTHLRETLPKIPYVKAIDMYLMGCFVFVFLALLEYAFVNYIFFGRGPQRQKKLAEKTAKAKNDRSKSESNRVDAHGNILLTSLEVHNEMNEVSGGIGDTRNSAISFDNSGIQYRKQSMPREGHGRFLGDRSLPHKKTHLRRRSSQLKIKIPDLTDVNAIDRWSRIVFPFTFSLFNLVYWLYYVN
The following applies: cited from earlier work.

Entries after “also recorded” stand apart in the source; their conditions may differ.

With `O=C1CN=C(c2ccccc2Cl)c2cc([N+](=O)[O-])ccc2N1` [Clonazepam], the “autistic-like behaviors and cognitive deficit in BTBR mice (summary)” value in data set [1] is “improved”. The half-life (in general, the time in which the quantity being followed falls by half) in data set [2] (in vivo) is 30 to 40 h. The half-life in vivo in data set [2] (mouse washout experiment) is 12 h. In addition, in data set [3] (low doses of clonazepam), the “anxiety-like behavior: avoidance of the center of an open field” value is recorded as “little effect”. In addition, the “hyperactivity (total distance moved) and circling behavior” value in data set [3] (low-dose clonazepam) was “unaffected”. Besides, the “visits to center of open field (indicator of abnormally low anxiety)” value in data set [4] (0.05 mg/kg) is “changed toward the values for C57BL/6J mice”. The “locomotor activity under chronic low dose” value in data set [4] (0.05 mg/kg daily for 14 days) is recorded as “did not cause any increase in locomotor activity; also recorded: did not have any effect”. Besides, the “tolerance to sedative effect (locomotor activity Day 14 vs Day 1)” value in data set [4] (1 mg/kg (high dose) for 14 days) was “significantly increased locomotor activity; also recorded: caused significant tolerance”. For the same molecule, in data set [4] (1 mg/kg for 14 days), the “locomotor activity on Day 14 compared to Day 1” value was 222±42%. In addition, in data set [4] (single injection 0.05 mg/kg), the “hyperactivity, total distance moved” value was “significantly reduced” and the “stereotyped circling behavior, number of 360° rotations” value is recorded as “significantly reduced”.
Consider `Cn1ncnc1COc1nn2c(-c3cc(F)ccc3F)nnc2cc1C(C)(C)C` [L-838,417], for which, in data set [1], the “autistic-like behaviors and cognitive deficit in BTBR mice (summary)” value is “improved”. Also, in data set [5] (drug discrimination), the “substitution for chlordiazepoxide in animals” value was “substitutes for the anxiolytic benzodiazepine chlordiazepoxide” and the “substitution for zolpidem in animals” value is “not for the hypnotic imidazopyridine drug zolpidem”. For the same molecule, the “sedative effects in animal studies” value in data set [5] (even at high doses) was “no sedative effects”. Besides, the “affinity for the α4 or α6 subtypes” value in data set [6] is reported as “little affinity”. In data set [7], the “action at the α1 subtype” value is reported as “antagonist”.
